Laboratory results taken from the supplement of paper PMC8967900.

Columns and labels:
Assay in all cases: selective drug sensitivity score (sDSS, relative to normal bone marrow) (sDSS (score)); higher = more potent and effective on the cell line relative to normal bone marrow cells
Settings in all cases: 72 h
[1] = system: NALL-1
[2] = system: MN-60
[3] = system: LC4-1
[4] = system: CCRF-CEM
[5] = system: MHH-CALL-2
[6] = system: COG-LL-319h
[7] = system: COG-LL-394h
[8] = system: ALL-PO
[9] = system: MHH-CALL-4
[10] = system: MOLT-16
[11] = system: SEM cells
[12] = system: P30-OHKUBO
[13] = system: NALM-16
[14] = system: JURKAT
[15] = system: ALL-SIL
[16] = system: COG-LL-332h
[17] = system: PEER
[18] = system: MHH-CALL-3
[19] = system: NALM-6
[20] = system: 380
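Further: ALL cell lines in 384-well plates, five doses spanning 10,000-fold, each plate scaled between vehicle and 100 µmol/L benzalkonium chloride controls, sDSS an adapted area-under-curve metric.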

SMILES | selective drug sensitivity score [1] | selective drug sensitivity score [2] | selective drug sensitivity score [3] | selective drug sensitivity score [4] | selective drug sensitivity score [5] | selective drug sensitivity score [6] | selective drug sensitivity score [7] | selective drug sensitivity score [8] | selective drug sensitivity score [9] | selective drug sensitivity score [10] | selective drug sensitivity score [11] | selective drug sensitivity score [12] | selective drug sensitivity score [13] | selective drug sensitivity score [14] | selective drug sensitivity score [15] | selective drug sensitivity score [16] | selective drug sensitivity score [17] | selective drug sensitivity score [18] | selective drug sensitivity score [19] | selective drug sensitivity score [20]
CCN1CCN(Cc2ccc(Nc3ncc(F)c(-c4cc(F)c5nc(C)n(C(C)C)c5c4)n3)nc2)CC1 [Abemaciclib] (top concentration 2500 nM) | -5.96 | -8.16 | 2.94 | -2.36 | -3.96 | 6.64 | -3.26 | -3.36 | -1.76 | 8.24 | -1.86 | 5.94 | -6.46 | -6.16 | -2.66 | -1.66 | -1.96 | 1.24 | -4.46 | -6.86
CC(C)C[C@H](NC(=O)CNC(=O)c1cc(Cl)ccc1Cl)B(O)O [Ixazomib] (top concentration 1000 nM) | 6.56 | -1.84 | 6.46 | 10.5 | 5.26 | 6.06 | 5.26 | 8.46 | 7.96 | 7.06 | 13.1 | 6.66 | 0.66 | 4.86 | 7.56 | 8.16 | 7.66 | 8.96 | 6.66 | 5.56
CCn1c(C(=O)N(C2CC2)C2CC2)cc2c3c(ncn3C)c(Nc3cc(C)n(C)n3)nc21 (top concentration 10000 nM) | 0.44 | -4.36 | -4.36 | -3.96 | 3.44 | -4.36 | -4.36 | 8.14 | -1.56 | -4.36 | 0.94 | -3.66 | -4.36 | -4.36 | -4.36 | -4.36 | -4.36 | -4.36 | -4.36 | -4.36
C=C1C[C@@H]2[C@H](CC[C@]3(C)C(=O)CC[C@@H]23)[C@@]2(C)C=CC(=O)C=C12 [Exemestane] (top concentration 10000 nM) | -1.9 | -1.9 | 3.6 | -0.9 | -0.9 | 10 | -0.4 | -1.9 | -1.9 | -1.7 | -1.9 | -0.4 | -1.9 | -1.4 | -1.9 | 2.4 | -1.5 | 0.1 | 1.5 | 7.7
Cc1nc(-c2cn3c(n2)-c2ccc(-c4cnn(C(C)(C)C(N)=O)c4)cc2OCC3)n(C(C)C)n1 [Taselisib] (top concentration 1000 nM) | -1.7 | -0.4 | -2.2 | 3.9 | 6.9 | 4.1 | -2.7 | 13.2 | 7.9 | 2.8 | 5.2 | 12.2 | 4.2 | -2.6 | 1.2 | 0.7 | -4.3 | -4.3 | 9.5 | 7.4
Cc1ncc(-c2ccnc(Nc3ccc(S(C)(=O)=O)cc3)n2)n1C(C)C [AZD-5438] (top concentration 10000 nM) | -6.86 | -7.96 | 0.44 | 3.54 | -1.06 | 8.54 | -5.86 | -6.06 | -6.86 | 5.44 | 2.34 | 0.84 | -6.16 | -1.06 | -3.86 | -0.16 | 3.04 | 6.64 | 1.44 | -7.56
Cc1cn(-c2cc(NC(=O)c3ccc(C)c(Nc4nccc(-c5cnccn5)n4)c3)cc(C(F)(F)F)c2)cn1 [Radotinib] (top concentration 10000 nM) | 0 | 0.4 | 13.8 | 0 | 10.1 | 13.2 | 1.8 | 3.7 | 0 | 0.4 | 0 | 5.1 | 0 | 0 | 43.3 | 19.6 | 19.3 | 0 | 0.9 | 1.8
CC(C)c1c(C(=O)Nc2ccccc2)c(-c2ccccc2)c(-c2ccc(F)cc2)n1CC[C@@H](O)C[C@@H](O)CC(=O)O [Atorvastatin] (top concentration 10000 nM) | 0.1 | -2.5 | 4.9 | 0.3 | 0 | -1 | -1.2 | 1.1 | 0.1 | 2 | 0.4 | -2.2 | -3.7 | -3.7 | 4.2 | 1.2 | 2 | -3.7 | 1.4 | -3
COC[C@H](NC(=O)c1cnc(C)s1)C(=O)N[C@@H](COC)C(=O)N[C@@H](Cc1ccccc1)C(=O)[C@@]1(C)CO1 [Oprozomib] (top concentration 2500 nM) | 0.9 | -4.3 | 3.7 | 6.9 | 0.4 | 3.5 | 1.2 | 0.8 | 1.4 | 4.7 | 11.3 | 5.7 | 1.9 | 0.3 | -0.1 | 10.6 | 12.5 | 3.3 | -0.4 | 0.3
